Common to all, as to format: biochemical
Common to all, as to details: agonist; pH 7.4 (calcium); GTPγS binding at 1 μM ligand, 30°C; dose-response curves only in figures
On the technique in general: GTPγS is a poorly hydrolysed GTP analogue; its binding reports G protein activation.

For assay [1], the target named is T1, zebrafish Blt2b (Danio rerio, UniProt E7F4K9).
T1 construct: gene ltb4r2b; also HEK293 with Gq/i1; LC009451 assigned by order of listing
T1 sequence (E7F4K9 1-339): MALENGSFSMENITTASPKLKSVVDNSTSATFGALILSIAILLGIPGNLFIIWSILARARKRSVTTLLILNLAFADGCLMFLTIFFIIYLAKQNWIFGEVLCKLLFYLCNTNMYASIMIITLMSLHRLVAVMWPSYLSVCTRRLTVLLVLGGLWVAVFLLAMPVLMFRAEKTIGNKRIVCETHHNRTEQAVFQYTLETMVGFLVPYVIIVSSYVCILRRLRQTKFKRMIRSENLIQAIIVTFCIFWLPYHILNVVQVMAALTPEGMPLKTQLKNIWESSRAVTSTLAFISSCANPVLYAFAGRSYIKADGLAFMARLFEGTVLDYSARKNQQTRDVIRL
Briefly: calcium mobilization (Fluo-8), […]GTPγS binding, cAMP inhibition, TGFα shedding. In general terms: Calcium flux is commonly read through the fluorescence of an indicator in the cells.

Assay [2] concerns the target T2, hBLT2 (Homo sapiens, UniProt Q9NPC1).
T2 construct: gene LTB4R2; also HEK293 with Gq/i1
T2 sequence (Q9NPC1 1-358): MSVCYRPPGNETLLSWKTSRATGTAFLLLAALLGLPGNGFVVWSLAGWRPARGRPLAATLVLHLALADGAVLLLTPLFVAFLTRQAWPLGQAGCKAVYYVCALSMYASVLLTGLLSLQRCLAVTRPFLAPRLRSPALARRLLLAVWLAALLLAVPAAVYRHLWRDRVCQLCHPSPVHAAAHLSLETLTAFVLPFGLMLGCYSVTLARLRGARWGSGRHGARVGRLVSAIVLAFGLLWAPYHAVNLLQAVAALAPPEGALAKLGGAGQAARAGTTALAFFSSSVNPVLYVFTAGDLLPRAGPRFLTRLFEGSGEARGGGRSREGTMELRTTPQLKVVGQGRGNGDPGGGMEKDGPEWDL
The assay is described as above.

A further assay deals with T3, zebrafish Blt1 (Danio rerio, UniProt A0A0A8JWS4).
T3 construct: gene ltb4r; also HEK293 with Gq/i1
T3 sequence (A0A0A8JWS4 1-380): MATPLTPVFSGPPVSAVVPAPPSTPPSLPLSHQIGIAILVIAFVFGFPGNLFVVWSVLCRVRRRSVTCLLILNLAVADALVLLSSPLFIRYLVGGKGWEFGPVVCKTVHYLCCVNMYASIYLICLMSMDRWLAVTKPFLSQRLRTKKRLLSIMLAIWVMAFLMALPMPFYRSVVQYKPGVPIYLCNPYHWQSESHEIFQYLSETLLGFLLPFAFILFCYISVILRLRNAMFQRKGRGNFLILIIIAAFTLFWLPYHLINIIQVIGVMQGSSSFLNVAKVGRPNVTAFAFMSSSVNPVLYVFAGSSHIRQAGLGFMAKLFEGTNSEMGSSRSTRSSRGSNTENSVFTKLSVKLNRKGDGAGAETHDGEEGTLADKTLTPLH
The description is as above.

Assay [3] has as its target T1, zebrafish Blt2b. Briefly: calcium mobilization (Fluo-8), […]GTPγS binding, TGFα shedding.
The target of the next assay is T4, zebrafish Blt2a (Danio rerio, UniProt A0A0A8JZN4).
T4 construct: gene ltb4r2a; also HEK293 with Gq/i1; LC009450 assigned by order of listing
T4 sequence (A0A0A8JZN4 1-382): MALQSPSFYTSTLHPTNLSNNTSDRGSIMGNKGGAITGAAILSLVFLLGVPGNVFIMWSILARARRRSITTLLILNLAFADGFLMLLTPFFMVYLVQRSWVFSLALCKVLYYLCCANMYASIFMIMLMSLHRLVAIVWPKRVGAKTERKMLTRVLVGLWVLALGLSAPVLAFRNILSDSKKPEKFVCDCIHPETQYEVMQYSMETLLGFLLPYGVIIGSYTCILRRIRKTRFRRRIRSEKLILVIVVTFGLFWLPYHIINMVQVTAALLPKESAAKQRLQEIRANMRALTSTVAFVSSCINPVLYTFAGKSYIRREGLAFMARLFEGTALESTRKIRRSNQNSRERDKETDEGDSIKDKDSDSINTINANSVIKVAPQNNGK
Described as above.

In the next assay the target is T5, hBLT1 (Homo sapiens, UniProt Q15722).
T5 construct: gene LTB4R; also HEK293 with Gq/i1
The assay is described as follows: calcium mobilization (Fluo-8), […]GTPγS binding, cAMP inhibition, TGFα shedding.

Assay [4] deals with T2, hBLT2.

Structures are written as SMILES.

The values that follow come from PMC4349892, “Biochemical Characterization of Three BLT Receptors in Zebrafish” (PLoS ONE, 2015).

T5 sequence (Q15722 whole entry): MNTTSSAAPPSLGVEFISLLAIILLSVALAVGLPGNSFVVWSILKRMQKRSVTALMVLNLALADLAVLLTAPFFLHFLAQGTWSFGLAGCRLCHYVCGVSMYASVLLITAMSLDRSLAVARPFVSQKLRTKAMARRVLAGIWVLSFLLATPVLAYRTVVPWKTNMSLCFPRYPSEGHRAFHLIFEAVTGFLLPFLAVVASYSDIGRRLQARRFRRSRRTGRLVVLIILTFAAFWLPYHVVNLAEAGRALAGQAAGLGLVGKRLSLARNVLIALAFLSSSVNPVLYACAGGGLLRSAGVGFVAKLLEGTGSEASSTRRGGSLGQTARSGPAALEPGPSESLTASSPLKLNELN

Take `CCCCC[C@H](O)/C=C/C=C/C/C=C\CCCC(=O)O` [12-HHT, 12(S)-hydroxy-5-cis-8,10-trans-heptadecatrienoic acid]: the “calcium mobilization (Fluo-8), [35S]GTPγS binding, cAMP inhibition, TGFα sheddin” value is 12-HHT activated zebrafish Blt2a and Blt2b at lower doses than LTB4 on zebrafish Blt2b [1]; “exhibited a dose-dependent increase in response to either 12-HHT or LTB4 stimulation” on hBLT2 [2].
For the compound `CCCCC/C=C\C[C@@H](O)/C=C/C=C/C=C\[C@@H](O)CCCC(=O)O` [LTB4], the “calcium mobilization (Fluo-8), [35S]GTPγS binding, cAMP inhibition, TGFα sheddin” value at zebrafish Blt1 and at hBLT1 was “intracellular free calcium concentration increased in a dose-dependent manner in response to LTB4 stimulation” each time. Also, the “calcium mobilization (Fluo-8), [35S]GTPγS binding, TGFα shedding” value at zebrafish Blt2b [3], on zebrafish Blt2a and on hBLT2 [4] was “exhibited a dose-dependent increase in response to either 12-HHT or LTB4 stimulation” in each case.
